ChEMBL document CHEMBL3045323, “Synthesis, anti-inflammatory and anticancer activity evaluation of some mono- and bis-Schiffs bases” (2012)
Starred links: 1 amine or outer side, 2 acyl side, 3 side chain; linkers in the order of their positions; H or OH if unused. Positions of bridges follow the written chain, without caps; N, C: chain ends. Non-standard residues stand in square brackets, D forms with d. Residues, ends and D or L forms follow the SMILES beside them. Chains are numbered I, II in the order given. Actinocin(1to9) = Cc1c2oc3c(C)ccc(C(=O)[*:2])c3nc-2c(C(=O)[*:1])c(N)c1=O; NMeV = CN[C@H](C(=O)O)C(C)C; Sar = CNCC(=O)O

How the values were obtained:
Assay type in all cases: functional
Rattus norvegicus = experiment: Anti-inflammatory activity inRattus norvegicus albino (rat) assessed as inhibition of carrageenan-induced paw edema at 50 mg/kg, po administered for 30 min followed by carrageenan challenge measured after 1 to 3 hr relative to control
T47D = experiment: Cytotoxicity against Homo sapiens (human) T47D cells assessed as growth inhibition at 1 x 10^-5 M after 48 hr by SRB assay; details: read-out: GI
HepG2 = experiment: Cytotoxicity against Homo sapiens (human) HepG2 cells assessed as growth inhibition at 1 x 10^-5 M after 48 hr by SRB assay; details: HepG2, 48 h, read-out: GI
PA-1 = experiment: Cytotoxicity against Homo sapiens (human) PA1 cells assessed as growth inhibition at 1 x 10^-5 M after 48 hr by SRB assay; details: PA-1, 48 h, read-out: GI
NCI-H522 = experiment: Cytotoxicity against Homo sapiens (human) NCI-H522 cells assessed as growth inhibition at 1 x 10^-5 M after 48 hr by SRB assay; details: NCI-H522, 48 h, read-out: GI
HCT-15 = experiment: Cytotoxicity against Homo sapiens (human) HCT15 cells assessed as growth inhibition at 1 x 10^-5 M after 48 hr by SRB assay; details: HCT-15, 48 h, read-out: GI

SMILES | inhibition in vivo at 50 mg/kg (Rattus norvegicus) | inhibition of growth at 10 µM (T47D) | inhibition of growth at 10 µM (HepG2) | inhibition of growth at 10 µM (PA-1) | inhibition of growth at 10 µM (NCI-H522) | inhibition of growth at 10 µM (HCT-15)
COc1cc(/C=N/CC2CCCO2)ccc1O (stereo unspecified) | 14% | 25% | 1% | 13% | 17% | 24%
COc1cc(/C=N/CCCn2ccnc2)ccc1O | 0% | 15% | 11% | 16% | 22% | 1%
COc1cc(/C=N/CCN2CCNCC2)ccc1O | 18% | 25% | 30% | 39% | 25% | 4%
COc1ccc(OC)c(/C=N/CC2CCCO2)c1 (stereo unspecified) | 16% | 33% | 25% | 38% | 15% | 0%
COc1ccc(OC)c(/C=N/CCCn2ccnc2)c1 | 0% | 29% | 24% | 25% | 24% | 3%
COc1ccc(OC)c(/C=N/CCN2CCNCC2)c1 | 21% | 28% | 22% | 16% | 49% | 4%
C(=N\CC1CCCO1)/c1ccco1 (stereo unspecified) | 26% | 12% | 20% | 16% | 15% | 4%
C(=N\CCCn1ccnc1)/c1ccco1 | 28% | 16% | 1% | 13% | 29% | 1%
C(=N\CCN1CCNCC1)/c1ccco1 | 22% | 21% | 18% | 35% | 19% | 5%
COc1cc(/C=N/c2n[nH]c(/N=C/c3ccc(O)c(OC)c3)n2)ccc1O | 26% | 38% | 14% | 40% | 9% | 4%
COc1cc(/C=N/CCCN2CCN(CCC/N=C/c3ccc(O)c(OC)c3)CC2)ccc1O | 25% | 18% | 3% | 51% | 1% | 5%
COc1ccc(OC)c(/C=N/c2n[nH]c(/N=C/c3cc(OC)ccc3OC)n2)c1 | 22% | 41% | 10% | 53% | 15% | 5%
COc1ccc(OC)c(/C=N/CCCN2CCN(CCC/N=C/c3cc(OC)ccc3OC)CC2)c1 | 20% | 24% | 8% | 62% | 13% | 7%
C(=N\c1n[nH]c(/N=C/c2ccco2)n1)/c1ccco1 | 11% | 30% | 25% | 48% | 26% | 3%
C(=N\CCCN1CCN(CCC/N=C/c2ccco2)CC1)/c1ccco1 | 30% | 9% | 10% | 43% | 5% | 6%
C[C@@H]1C[C@@H]([C@H](O)CC2CC(=O)NC(=O)C2)C(=O)[C@@H](C)C1 [CYCLOHEXIMIDE] |  | 30% | 14% | 82% | 20% | 5%
O=P1(N(CCCl)CCCl)NCCCO1 (stereo unspecified) [CYCLOPHOSPHAMIDE ANHYDROUS] |  | 36% | 24% | 21% | 7% | 7%
Cc1c2oc3c(C)ccc(C(=O)N[C@@H]4C(=O)N[C@H](C(C)C)C(=O)N5CCC[C@H]5C(=O)N(C)CC(=O)N(C)[C@@H](C(C)C)C(=O)O[C@@H]4C)c3nc-2c(C(=O)N[C@@H]2C(=O)N[C@H](C(C)C)C(=O)N3CCC[C@H]3C(=O)N(C)CC(=O)N(C)[C@@H](C(C)C)C(=O)O[C@@H]2C)c(N)c1=O [DACTINOMYCIN] (I: T[dV]P[Sar][NMeV] / II: T[dV]P[Sar][NMeV]; ester I:1-I:C, II:1-II:C; linker I:N-II:N via Actinocin(1to9)) |  | 21% | 42% | 93% | 59% | 49%
O=c1[nH]cc(F)c(=O)[nH]1 [FLUOROURACIL] |  | 22% | 33% | 27% | 51% | 21%
CC(C)Cc1ccc(C(C)C(=O)O)cc1 (stereo unspecified) [IBUPROFEN] | 39% |  |  |  |  | 
